The text below walks through data of US20240293397A1 (H. Lundbeck A/S, priority 2010, published 2024).

Structures can show the parent of a compound that is named as a salt. Where two headings read alike, the source gives them in different places.

Series [1] is described as follows: Properties of polymorphic forms and salts (stability, solubility, hygroscopicity). It counts as physicochemical. The procedure: The polymorphic forms have different properties.
When a compound is administered as an oral drop formulation, a few drops of a concentrated, liquid formulation of said drug is measured out and added to a glass of water, juice or the like that the patient drinks. As an example, the antidepressant cipramil is provided as an oral drop formulation at 40 mg/ml.

Series [2] can be described thus: Long-term effects on body weight, relapse prevention study in patients with major depressive disorder. It counts as in vivo, human. The note with it: for Δ weight / ≥7% weight gain: MDD. The text has this: The recruitment of patients took place over time, and since the end of the study was defined by the last patient having completed the 24 weeks study, some patients received up to 64 weeks double-blind placebo-controlled treatment. This study is also reported in poster NR4-14 presented at the 164th Annual Meeting of the American Psychiatric Association, May 14-18 2011, Honolulu, Hawaii, USA.
(§1) The tables below show the mean difference in weight relative to the start of the open label period and to the time of randomisation and the fraction of patients experiencing equal to or more than […] during the study, i.e. potentially clinically significant increase.

A short description of series [3]: Long-term effects on body weight, relapse prevention study in patients with generalised anxiety disorder. The class given is in vivo, human. The note with it: for Δ weight / ≥7% weight gain: GAD.
Excerpt: The recruitment of patients took place over time, and since the end of the study was defined by the last patient having completed at least 24 weeks, some patients received up to 56 weeks double-blind placebo-controlled treatment.
as §1

The target in a further series is T1, 5-HT3 receptor (Homo sapiens, UniProt P46098).
T1 sequence (P46098 24-478): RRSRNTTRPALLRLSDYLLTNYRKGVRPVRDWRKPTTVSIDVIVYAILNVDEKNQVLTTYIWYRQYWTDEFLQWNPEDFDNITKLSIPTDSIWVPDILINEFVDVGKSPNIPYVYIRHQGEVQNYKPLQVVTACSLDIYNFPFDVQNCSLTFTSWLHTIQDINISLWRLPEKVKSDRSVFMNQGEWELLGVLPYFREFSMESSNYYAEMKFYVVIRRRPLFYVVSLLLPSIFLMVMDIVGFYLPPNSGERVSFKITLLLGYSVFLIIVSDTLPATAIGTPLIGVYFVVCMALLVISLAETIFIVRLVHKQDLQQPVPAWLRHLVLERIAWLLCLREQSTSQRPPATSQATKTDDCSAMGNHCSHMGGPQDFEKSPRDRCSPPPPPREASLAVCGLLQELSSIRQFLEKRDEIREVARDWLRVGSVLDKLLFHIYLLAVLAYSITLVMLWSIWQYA
Conditions: in vitro; cited from earlier work.

Another series concerns the target 5-HT7 receptor (Homo sapiens, UniProt P34969). Conditions: in vitro; cited from earlier work.
The next series has as its target 5-HT1B receptor (Homo sapiens, UniProt P28222). The note with it: in vitro; cited from earlier work.
Another series has as its target 5-HT transporter (Homo sapiens, UniProt P31645). The note with it: in vitro; cited from earlier work.
The subject of series [4] is neurotransmitters serotonin, noradrenalin, dopamine, acetylcholine and histamine. Conditions: in vivo nonclinical; cited from earlier work.
For series [5] the following is noted: six weeks, cited from earlier work.
For series [6] the following is noted: long-term (up to two years) relapse prevention study; cited from earlier work.
For series [7] the following is noted: OCD patients; end of 2.5 years study; cited from earlier work.
For series [8] the following is noted: long-term study (26-32 weeks); cited from earlier work.
The conditions of series [9]: six week study; cited from earlier work.
The conditions of series [10]: 566 patients, eight weeks; cited from earlier work.
For series [11] the following is noted: 324 patients, eight weeks; cited from earlier work.
[12] abbreviates: week 12, relative to start of open label period (t = 0), 204 patients.
[13] abbreviates: week 24, relative to start of open label period (t = 0), 199 patients.
[14] abbreviates: week 24, relative to time of randomisation (t = 12 weeks), 199 patients.
[15] abbreviates: week 36, relative to start of open label period (t = 0), 157 patients.
[16] abbreviates: week 36, relative to time of randomisation (t = 12 weeks), 157 patients.
[17] abbreviates: week 48, relative to start of open label period (t = 0), 90 patients.
[18] abbreviates: week 48, relative to time of randomisation (t = 12 weeks), 90 patients.
The mark [19] stands for this setting: week 60, relative to start of open label period (t = 0), 52 patients.
Setting [20] is: week 60, relative to time of randomisation (t = 12 weeks), 52 patients.
Where [21] appears, read: week 72, relative to start of open label period (t = 0), 19 patients.
The mark [22] stands for this setting: week 72, relative to time of randomisation (t = 12 weeks), 19 patients.
[23] abbreviates: week 76, relative to start of open label period (t = 0), 3 patients.
The mark [24] stands for this setting: week 76, relative to time of randomisation (t = 12 weeks), 3 patients.
Setting [25] is: week 20, relative to start of open label period (t = 0), 227 patients.
Where [26] appears, read: week 32, relative to start of open label period (t = 0), 220 patients.
The mark [27] stands for this setting: week 32, relative to time of randomisation (t = 20 weeks), 221 patients.
Setting [28] is: week 44, relative to start of open label period (t = 0), 179 patients.
Setting [29] is: week 44, relative to time of randomisation (t = 20 weeks), 180 patients.
The mark [30] stands for this setting: week 56, relative to start of open label period (t = 0), 84 patients.
The mark [31] stands for this setting: week 56, relative to time of randomisation (t = 20 weeks), 84 patients.
Setting [32] is: week 68, relative to start of open label period (t = 0), 28 patients.
Setting [33] is: week 68, relative to time of randomisation (t = 20 weeks), 28 patients.
Where [34] appears, read: week 76, relative to start of open label period (t = 0), 4 patients.
Setting [35] is: week 76, relative to time of randomisation (t = 20 weeks), 4 patients.

Sequence of 5-HT7 receptor (P34969 whole entry): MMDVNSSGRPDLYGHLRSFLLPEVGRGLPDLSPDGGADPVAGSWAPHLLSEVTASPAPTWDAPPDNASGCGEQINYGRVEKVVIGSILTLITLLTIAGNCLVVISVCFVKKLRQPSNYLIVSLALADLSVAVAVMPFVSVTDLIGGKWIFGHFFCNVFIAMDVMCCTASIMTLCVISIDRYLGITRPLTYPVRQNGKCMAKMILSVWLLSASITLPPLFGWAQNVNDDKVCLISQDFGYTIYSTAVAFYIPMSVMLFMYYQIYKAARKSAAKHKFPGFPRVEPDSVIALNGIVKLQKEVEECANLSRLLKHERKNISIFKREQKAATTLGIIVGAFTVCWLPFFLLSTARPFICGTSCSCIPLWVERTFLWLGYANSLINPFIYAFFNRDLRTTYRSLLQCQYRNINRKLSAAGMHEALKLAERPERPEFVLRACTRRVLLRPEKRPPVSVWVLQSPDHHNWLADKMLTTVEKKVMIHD
Sequence of 5-HT transporter (P31645 whole entry, species assumed): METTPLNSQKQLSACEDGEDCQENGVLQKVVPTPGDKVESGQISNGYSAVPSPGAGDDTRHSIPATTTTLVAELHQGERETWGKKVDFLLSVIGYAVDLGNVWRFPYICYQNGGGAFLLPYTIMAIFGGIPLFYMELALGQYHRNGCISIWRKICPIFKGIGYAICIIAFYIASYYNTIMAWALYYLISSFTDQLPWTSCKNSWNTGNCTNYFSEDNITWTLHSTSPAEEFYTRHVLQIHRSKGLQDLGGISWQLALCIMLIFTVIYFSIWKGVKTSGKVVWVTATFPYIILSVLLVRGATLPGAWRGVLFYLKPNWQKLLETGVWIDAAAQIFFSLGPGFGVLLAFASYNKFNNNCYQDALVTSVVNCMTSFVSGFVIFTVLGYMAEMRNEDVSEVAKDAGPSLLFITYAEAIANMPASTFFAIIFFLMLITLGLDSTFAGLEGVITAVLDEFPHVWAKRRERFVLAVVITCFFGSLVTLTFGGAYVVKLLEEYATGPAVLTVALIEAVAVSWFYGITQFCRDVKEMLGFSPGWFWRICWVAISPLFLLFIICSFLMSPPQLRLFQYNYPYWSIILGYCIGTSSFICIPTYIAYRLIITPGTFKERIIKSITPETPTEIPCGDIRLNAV
Sequence of 5-HT1B receptor (P28222 whole entry): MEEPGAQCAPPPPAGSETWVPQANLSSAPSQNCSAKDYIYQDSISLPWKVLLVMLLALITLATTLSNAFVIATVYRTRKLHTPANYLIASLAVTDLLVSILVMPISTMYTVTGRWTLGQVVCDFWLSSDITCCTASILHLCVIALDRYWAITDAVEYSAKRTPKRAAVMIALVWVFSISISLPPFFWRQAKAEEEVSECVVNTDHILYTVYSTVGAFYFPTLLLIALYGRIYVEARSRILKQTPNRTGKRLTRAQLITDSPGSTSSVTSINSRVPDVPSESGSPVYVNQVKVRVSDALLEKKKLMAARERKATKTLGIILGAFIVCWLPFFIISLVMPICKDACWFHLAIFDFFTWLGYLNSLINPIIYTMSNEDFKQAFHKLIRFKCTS

In the case of `Cc1ccc(Sc2ccccc2N2CCNCC2)c(C)c1` (racemic) [DL lactate salt of Compound I, DL-lactate salt of 1-[2-(2,4-dimethylphenylsulphanyl)-phenyl]piperazine], the solubility entry in series [1] was “high solubility”.
`Cc1ccc(Sc2ccccc2N2CCNCC2)c(C)c1` [Compound I HBr, 1-[2-(2,4-dimethyl-phenylsulfanyl)phenyl]piperazine HBr]: the “weight gain versus placebo after long-term treatment” value was “no meaningful difference” in series [2] (MDD patients, data of tables 1 and 2); “no meaningful difference” in series [3] (combined data of tables 1-4 (MDD and GAD patients)). The Δ weight in series [2] (setting [12]) is given as 0.0 kg; in series [2] (setting [13]), 0.3 kg; in [2] (setting [14]), 0.4 kg; in series [2] (setting [15]), 0.6 kg; in series [2] (setting [16]), 0.6 kg; in series [2] (setting [17]), 0.7 kg. In addition, the Δ weight is 0.9 kg in series [2] (setting [18]); 0.4 kg in series [2] (setting [19]); 0.8 kg in series [2] (setting [20]); -0.2 kg in [2] (setting [21]); 0.3 kg in series [2] (setting [22]); -2.3 kg in series [2] (setting [23]). Further, the Δ weight in [2] (setting [24]) is -0.8 kg; in series [3] (setting [25]) it was 0.3 kg; in series [3] (setting [26]), 0.5 kg; in series [3] (setting [27]), 0.3 kg; in series [3] (setting [28]) it was 0.8 kg; in [3] (setting [29]) it was 0.5 kg. Moreover, the Δ weight is 1.5 kg in series [3] (setting [30]); 1.1 kg in series [3] (setting [31]); 1.5 kg in series [3] (setting [32]); 1.7 kg in series [3] (setting [33]); 0.9 kg in series [3] (setting [34]); 1.6 kg in [3] (setting [35]). Besides, the “≥7% weight gain” value is listed as 2.0% in series [2] (setting [12]); 6.5% in series [2] (setting [13]); 2.0% in [2] (setting [14]); 8.9% in [2] (setting [15]); 6.4% in [2] (setting [16]); 8.9% in [2] (setting [17]). Further, the “≥7% weight gain” value was 8.9% in series [2] (setting [18]); 9.6% in series [2] (setting [19]); 13.5% in series [2] (setting [20]); 10.5% in series [2] (setting [21]); 10.5% in series [2] (setting [22]); 0.0% in [2] (setting [23]). The “≥7% weight gain” value in series [2] (setting [24]) turned out to be 0.0%; in series [3] (setting [25]), 2.6%; in [3] (setting [26]), 3.6%; in [3] (setting [27]), 0.9%; in [3] (setting [28]), 8.4%; in series [3] (setting [29]) it was 4.4%. The “≥7% weight gain” value in [3] (setting [30]) came out at 17.9%; in series [3] (setting [31]) it was 10.7%; in series [3] (setting [32]) it was 10.7%; in [3] (setting [33]) it was 10.7%; in series [3] (setting [34]), 0.0%; in series [3] (setting [35]), 0.0%.
With `Cc1ccc(Sc2ccccc2N2CCNCC2)c(C)c1` [Compound I, 1-[2-(2,4-dimethyl-phenylsulfanyl)phenyl]piperazine], on 5-HT3 receptor, the “activity at 5-HT3 receptor” value is on record as “antagonist”. For the same compound, the “activity at 5-HT7 receptor” value at 5-HT7 receptor is “antagonist”. Besides, the “activity at 5-HT1B receptor” value at 5-HT1B receptor was “partial agonist”. Moreover, on 5-HT transporter, the “activity at 5-HT transporter” value is given as “inhibitor”. For the same compound, in [4], the “levels of serotonin, noradrenalin, dopamine, acetylcholine and histamine in specific areas of the brain” value is recorded as “enhances levels”. Besides, the “changes in clinical laboratory results, vital signs, weight, or ECG parameters” value in [5] (MDD patients) was “no clinically relevant changes”. In series [5] (approximately 100 patients in each arm, MDD), the “treatment of depressive and anxious symptoms versus placebo” value was “separates significantly from placebo”.
For the compound `CN(C)CCC=C1c2ccccc2CCc2ccccc21` [amitriptyline], the “proportion of patients showing a PCS increase in body weight” value in [6] is recorded as 22%.
Turning to `CN(C)CCCC1(c2ccc(F)cc2)OCc2cc(C#N)ccc21` (stereo not shown) [citalopram], in series [7], the “percentage of patients with PCS weight increase (7% or above compared to baseline)” value is listed as 14.3%.
On to `CN(C)CCCN1c2ccccc2CCc2ccc(Cl)cc21` [clomiptramine], for which, in [7], the “percentage of patients with PCS weight increase (7% or above compared to baseline)” value is given as 34.8%.
Regarding `CNCCC(Oc1ccc(C(F)(F)F)cc1)c1ccccc1` (stereo not shown) [fluoxetine], the “proportion of patients showing a PCS increase in body weight” value in series [8] is 6.6%. In series [7], the “percentage of patients with PCS weight increase (7% or above compared to baseline)” value was 8.7%.
For `Fc1ccc([C@@H]2CCNC[C@H]2COc2ccc3c(c2)OCO3)cc1` [paroxetine], the “proportion of patients showing a PCS increase in body weight” value in [8] was 25.5%. Besides, in series [9], the weight gain result is given as “no weight gain was noted”. The weight change entry in [10] is “small weight loss”. Moreover, the effects on weight result in [11] was “no substantial effects on weight”. In addition, the “percentage of patients with PCS weight increase (7% or above compared to baseline)” value in series [7] is given as 14.3%.
As for `CN[C@H]1CC[C@@H](c2ccc(Cl)c(Cl)c2)c2ccccc21` [sertraline], in [8], the “proportion of patients showing a PCS increase in body weight” value is listed as 4.2%. In addition, the “percentage of patients with PCS weight increase (7% or above compared to baseline)” value in series [7] was 4.5%.
